Measurements published in patent publication US20040053345A1, “Marker for probing the therapeutic efficacy of drugs” (priority 2002, published 2004).
Entries after “also recorded” stand apart in the source; their conditions may differ.

How the values were obtained:
[1] = system: estrogen receptor (ER) transcription activity; assay: Reporter gene assay with ERE-Luc in menin-transfected cells in the presence of tamoxifen; type: cell-based, human; details: MCF-7 cells co-transfected with menin expression vector and ERE-Luc; 1 μM tamoxifen; 24 hours
Protocol: The cells were cultured in DMEM (ICN) medium to which 10% fetal calf serum (ICN) was supplemented.
Full-length menin cDNA was amplified by RT-PCR, and inserted into an expression vector, pcDNA3 (Invitrogen). The menin cDNA was identified by sequencing. The mutation (569delC) was introduced with a site-directed mutagenesis kit (Promega) to produce a variant menin.
The menin expression vector and the reporter gene (ERE-Luc) were co-transfected into MCF-7 cells according to the liposome method. Similarly, the menin expression vector, CMV-ERA and the reporter gene (ERE-Luc) were co-transfected. into COS-7 cells according to the liposome method. After culturing for 24 hours, the proteins were extracted from cells and assayed for their luciferase activity. The extracted proteins were measured for their protein concentration and β-galactosidase activity wherein β-galactosidase was co-transfected and the introduction efficiency was calibrated. Similar experiments were carried out with addition of 1 μM tamoxifen to the same system.

breast cancer [2] = assay: Menin expression in breast cancer tissues (immunohistological staining) versus recurrence under tamoxifen; type: in vivo, human
Protocol: Thin slices (4 μm) were prepared from breast cancer tissues embedded with paraffin. After removing paraffin, the microwave treatment was carried out (5 min×3) in citrate buffer. After cooling at room temperature, the endogenous peroxidase activity was inhibited using an aqueous 0.3% hydrogen peroxide solution. Next, blocking was performed with 6 drops of 5% bovine albumin (Sigma) for one hour, and then the anti-menin antibody (Santa Cruz) (first antibody capable of immunohistological staining) was reacted overnight (8 hours). After washing, the second antibody and 6 drops of Envision+ (Dako) wherein HRP was conjugated with polymers were reacted for one hour.
After 100 mg of a coloring agent, DAB (Dojindo), was thoroughly mixed in 150 ml of PBS, the slice was immersed in a solution containing 75 μl of 30% hydrogen peroxide (0.5 μl/ml) for 1 min, and immediately immersed into and washed with tap water. After the dehydration treatment, the slice was enclosed with a cover glass, and observed by a microscopy. The specimen where menin-positive cells with brown-colored nuclei were 50% or more of total cells was determined to be menin-positive.

breast cancer [3] = details: ER-positive patients, tamoxifen administered for 5 years; cited from earlier work

For `CC/C(=C(\c1ccccc1)c1ccc(OCCN(C)C)cc1)c1ccccc1` [tamoxifen], the “inhibition of luciferase activity (ER transcription activity)” value [1] was “not inhibited; also recorded: no suppressive effect”, the cancer recurrence (breast cancer [2]; 5 menin-positive cases, tamoxifen administered in 3 cases) was 4 cases and the cancer recurrence (breast cancer [2]; menin-negative patient cases (3 of 10) administered tamoxifen) was “no recurrence”. For the same molecule, the “recurrence rate relative to that in non-administered patients” value (breast cancer [3]) was 50%.
